Measurements published in paper PMC10243242 (European Journal of Clinical Pharmacology, 2023).
Values joined by “and” are separate entries in the source; they are usually repeats but may differ in a detail not shown here. Equal values may be shown once. Read-outs that look alike come from different tables or passages of the source. Marks after values point to notes of the source that are not given here.

Experiments:
CYP2D6 [1] = molecular target: T1, CYP2D6 (Homo sapiens, UniProt P10635); design: method as in PMID 34846990; conditions: cited from earlier work
T1 sequence (P10635 whole entry): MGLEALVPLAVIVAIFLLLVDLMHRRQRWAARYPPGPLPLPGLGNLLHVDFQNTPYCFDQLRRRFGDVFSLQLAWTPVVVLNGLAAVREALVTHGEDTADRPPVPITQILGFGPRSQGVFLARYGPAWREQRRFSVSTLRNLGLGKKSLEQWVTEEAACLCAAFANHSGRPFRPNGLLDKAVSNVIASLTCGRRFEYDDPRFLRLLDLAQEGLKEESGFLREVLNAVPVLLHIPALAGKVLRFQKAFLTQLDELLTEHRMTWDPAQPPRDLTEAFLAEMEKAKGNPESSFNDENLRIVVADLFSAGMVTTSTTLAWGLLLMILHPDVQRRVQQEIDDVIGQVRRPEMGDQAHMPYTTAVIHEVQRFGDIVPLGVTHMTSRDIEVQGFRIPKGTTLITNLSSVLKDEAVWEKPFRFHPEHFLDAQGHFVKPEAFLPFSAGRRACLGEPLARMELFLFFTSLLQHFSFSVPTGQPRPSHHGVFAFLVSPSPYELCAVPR

[2] = Clinical drug-drug interaction study: plasma pharmacokinetics of dextromethorphan and dextrorphan with and without emvododstat; type: in vivo, human; conditions: for Tmax: median (range); for CL/F: dextromethorphan
Description: (§1) On day 1, 18 healthy subjects (ages ≥ 18 and ≤ 65 years) received a single oral dose of 30 mg (capsule) dextromethorphan followed by a 4-day washout period. On day 5, subjects received a single oral dose of 250 mg emvododstat with food. Two hours later, subjects were administered a single oral dose of 30 mg modified-release dextromethorphan.
Blood samples (3 mL) for dextromethorphan and dextrorphan assessments were collected in K2EDTA vacutainers on day 1 (dextromethorphan alone) and on day 5 (dextromethorphan in combination with emvododstat) at the following timepoints: 0- (predose), 0.5-, 1-, 2-, 3-, 4-, 5-, 6-, 8-, 12-, 24-, and 48-h post dextromethorphan dose. Within 120 min of collection of blood samples, plasma was harvested by centrifuging blood samples at 2000 ± 20 g for 10 min at 4 °C. Upon harvesting, plasma was transferred to 2-mL polypropylene tubes and immediately stored at – 20 ± 5 °C until analysis.
Concentrations of dextromethorphan and dextrorphan in human plasma samples were determined using high-performance liquid chromatography with tandem mass […] (LC-MS/MS) detection. The bioanalytical method was validated, and its performance during bioanalysis was within the limits specified in current regulatory guidance over a calibration range of 50 to 50,000 pg/mL. Validation included testing such as linearity, sensitivity, specificity, selectivity, accuracy and precision, dilution effects, recovery, ruggedness, and stability.
Briefly, dextromethorphan and dextrorphan were extracted from 0.2 mL of human K2EDTA plasma using an automated liquid–liquid extraction followed by detection using LC-MS/MS. Stable isotope labeled internal standard (dextromethorphan-d3 and dextrorphan-d3) was used to track the analytes potential variability. To 0.2 mL of plasma, the internal standard (IS) working solution diluted in an ammonium formate/ammonium hydroxide buffer solution was added. The analytes and ISs were extracted using methyl-tert-butyl-ether (MTBE). A portion of the upper layer was transferred to a 96 deep well collection plate using an automated liquid handling system. After evaporation to dryness, the dry residue was reconstituted with the mobile phase and injected on a Sciex API 4000. The chromatographic separation was performed in isocratic mode using BetaSil CN column (dimensions 50 × 4.6 mm, 5 μm) and methanol/Milli-Q type water with ammonium formate and formic acid as mobile phase. The mass spectrometer detection was performed in positive ion mode with multiple reaction monitoring (MRM) transitions of 272.2 → 215.3, 275.2 → 215.3, 258.2 → 201.2, and 261.2 → 157.2 for dextromethorphan, dextromethorphan-d3, dextrorphan, and dextrorphan-d3, respectively.
Dextromethorphan and dextrorphan concentrations in study plasma samples were determined using duplicate plasma calibration curves of dextromethorphan and dextrorphan in each analytical batch. Additionally, duplicate quality control plasma samples spiked with dextromethorphan and dextrorphan at four concentration levels (low, 150 pg/mL; intermediate, 2000 pg/mL; medium, 25,000 pg/mL; and high, […]) were included in each analytical batch to assess the assay performance of the bioanalytical method. The accuracy (%bias) of QC samples in all analytical batches was within ± 4.6%, and precision (%coefficient of variation) was less than 6.2% for dextromethorphan and dextrorphan.
Non-compartmental pharmacokinetics were performed using Phoenix® WinNonlin (Version 8.1, Certara, Princeton, NJ, USA). Primary parameters consisted of AUC0-last, AUC0-inf, and Cmax. Secondary parameters included T1/2, Tmax, and CL/F (drug clearance). Bioavailability assessments were calculated using SAS software (Version 9.4, SAS, Cary, NC, USA) in accordance with current regulatory guidelines. A mixed linear model was fitted on log-transformed AUC0-inf, AUC0-t, and Cmax for both parent and metabolite. […]

[3] = test system: human bone marrow progenitor cells; conditions: cultured human bone marrow progenitor cells; cited from earlier work
[4] = humans; cited from earlier work
[5] = rats dosed for up to 28 days; cited from earlier work
[6] = dogs dosed for up to 28 days; cited from earlier work
CYP2D6 [7] = molecular target: T1, CYP2D6; test: Clinical drug-drug interaction study: in vivo CYP2D6 inhibition with dextromethorphan as probe substrate; design: On day 1, 18 healthy subjects (ages ≥ 18 and ≤ 65 years) received a single oral dose of 30 mg (capsule) dextromethorphan; from tissue; host or cells: Healthy human subjects in vivo; The enzyme is their own; conditions: single oral dose 250 mg emvododstat, dextromethorphan as sensitive probe substrate, healthy subjects
Description: as §1
Non-compartmental pharmacokinetics were performed using Phoenix® WinNonlin (Version 8.1, Certara, Princeton, NJ, USA). Primary parameters consisted of AUC0-last, AUC0-inf, and Cmax. Secondary parameters included T1/2, Tmax, and CL/F (drug clearance). Bioavailability assessments were calculated using SAS software (Version 9.4, SAS, Cary, NC, USA) in accordance with current regulatory guidelines. A mixed linear model was fitted on log-transformed AUC0-inf, AUC0-t, and Cmax for both parent and metabolite. The model included terms for treatment (combined emvododstat + dextromethorphan as test treatment versus dextromethorphan as reference treatment) and subject as a random factor. LSM (geometric least squares mean) for the treatment ratio and 90% confidence intervals (90% CI) were estimated from the model.

SARS-CoV-2 = test system: SARS-CoV-2; design: method as in PMID 33249060; conditions: SARS-CoV-2019, cell culture, cited from earlier work
[8] = Safety and tolerability in healthy subjects; type: in vivo, human; conditions: single doses of dextromethorphan 30 mg with and without emvododstat 250 mg, 18 healthy subjects
Excerpt: The safety and tolerability of dextromethorphan alone and with emvododstat were monitored.

[9] = dextrorphan in plasma after 30 mg dextromethorphan alone, geometric mean (%CV)
[10] = dextrorphan in plasma after 30 mg dextromethorphan with 250 mg emvododstat, geometric mean (%CV)
[11] = dextromethorphan with emvododstat vs alone

**Q.** With `O=C(Oc1ccc(Cl)cc1)N1CCc2c([nH]c3ccc(Cl)cc23)C1c1ccc(O)cc1` (stereo not shown) [O-desmethyl emvododstat] as the molecule, how does the “Inhibition of CYP2D6 activity (in words)” value (CYP2D6 [1]; in vitro, compared with emvododstat) read?
**A.** to a lesser extent

**Q.** What does the source list for `CN1CC[C@@]23CCCC[C@@H]2[C@@H]1Cc1ccc(O)cc13` [Dextrorphan, dextrorphan]?
**A.** Geometric mean metabolite/parent ratio for AUC (dextrorphan/dextromethorphan) ([2]; dextromethorphan in the presence of emvododstat): 0.182 and 0.18; AUC0-last [2, 9]: 31,852 (45.7) h·pg/mL; AUC(0-inf) [2, 9]: 33,194 (43.8) h·pg/mL; AUC0-last [2, 10]: 29,382 (40.7) h·pg/mL; AUC(0-inf) [2, 10]: 30,875 (38.8) h·pg/mL; Tmax ([2]; dextrorphan in plasma after 30 mg dextromethorphan with 250 mg emvododstat): 4 (1–4) h; Effect of CYP2D6 inhibition on peak exposure (Cmax) ([2]; dextrorphan, Cmax LSM ratio just inside, 90% CIs outside of the no effect range 0.80 to 1.25): slightly affected; Cmax ([2]; human, oral, dextrorphan in plasma after 30 mg dextromethorphan alone, geometric mean (%CV)): 5 ng/mL; Cmax ([2]; human, oral, dextrorphan in plasma after 30 mg dextromethorphan with 250 mg emvododstat, geometric mean (%CV)): 4.05 ng/mL; half-life ([2]; human, plasma, oral, 30 mg, dextrorphan in plasma after 30 mg dextromethorphan alone, geometric mean (%CV), read-out: T1/2 (converted)): 5.86 h; half-life ([2]; human, plasma, oral, dextrorphan in plasma after 30 mg dextromethorphan with 250 mg emvododstat, geometric mean (%CV), read-out: T1/2 (converted)): 8.41 h; half-life ([2]; human, plasma, oral, dextrorphan, alone and in combination with emvododstat, read-out: Effective T1/2): 6 to 8 h; AUC(0-t) ([2]; human, plasma, oral, dextrorphan, 30 mg dextromethorphan capsules alone): 0.0319 µg·h/mL; AUC(0-inf) ([2]; human, plasma, oral, dextrorphan, 30 mg dextromethorphan capsules alone, read-out: AUC0-inf): 0.0332 µg·h/mL; AUC(0-t) ([2]; human, plasma, oral, dextrorphan, dextromethorphan given concurrently with emvododstat): 0.0294 µg·h/mL; AUC(0-inf) ([2]; human, plasma, oral, dextrorphan, dextromethorphan given concurrently with emvododstat, read-out: AUC0-inf): 0.0309 µg·h/mL; Geometric mean metabolite/parent ratio for AUC (dextrorphan/dextromethorphan) ([2]; prior to administration of emvododstat): 1.69

**Q.** With `COc1ccc(C2c3[nH]c4ccc(Cl)cc4c3CCN2C(=O)Oc2ccc(Cl)cc2)cc1` (stereo not shown) [Emvododstat, 4-chlorophenyl 6-chloro-1-[4-methoxyphenyl]-1,3,4,9-tetrahydro-2H-pyrido[3,4-b]indole-2-carboxylate] as the molecule, how does the “Effect on viability or proliferation” value [3] read?
**A.** does not impair

**Q.** What about the Myelotoxicity [4] of the same molecule?
**A.** no evidence of myelotoxicity

**Q.** What about the Myelotoxicity [5] of the same molecule?
**A.** no evidence of myelotoxicity

**Q.** What about the Myelotoxicity [6] of the same molecule?
**A.** no evidence of myelotoxicity

**Q.** And the “In vivo CYP2D6 inhibitor classification” value (CYP2D6 [7])?
**A.** strong inhibitor of CYP2D6 activity

**Q.** And the Ki (CYP2D6 [1]; human liver microsomes, non-competitive inhibitor, read-out: Inhibition constant (Ki) for CYP2D6)?
**A.** 0.038 µM and 0.0377 µM

**Q.** And the IC50 (CYP2D6 [1]; in vitro)?
**A.** 0.017 µM

**Q.** And the EC50 (SARS-CoV-2; read-out: EC50, decreased capsid protein)?
**A.** 0.00196 µM

**Q.** What about the EC50 (SARS-CoV-2; read-out: EC50, decreased viral titer) of the same molecule?
**A.** 0.0026 µM

**Q.** And the EC90 (SARS-CoV-2; read-out: EC90, decreased viral titer)?
**A.** 0.053 µM

**Q.** What about the Drug-related adverse effects [8] of the same molecule?
**A.** mild and reversible

**Q.** What does the source list for `COc1ccc2c(c1)[C@]13CCCC[C@@H]1[C@H](C2)N(C)CC3` [Dextromethorphan, dextromethorphan, reference compound]?
**A.** T1/2 ([2]; dextromethorphan in plasma, 30 mg dextromethorphan with 250 mg emvododstat (day 5), geometric mean (%CV), n = 16): 41.4^b (39.2) h; T1/2 ([2]; dextromethorphan in plasma, 30 mg oral dextromethorphan alone (day 1), geometric mean (%CV)): 9.15 (25.2) h; Increase in T1/2 [2, 11]: 32 h; Reduction in clearance (CL/F) [2, 11]: 94%; CL/F ([2]; 30 mg dextromethorphan with 250 mg emvododstat (day 5), geometric mean (%CV), n = 16): 81.5^b (117.0) L/h; CL/F ([2]; 30 mg oral dextromethorphan alone (day 1), geometric mean (%CV)): 1367 (176.7) L/h; AUC(0-t) ([2]; human, oral, dextromethorphan in plasma, 30 mg dextromethorphan with 250 mg emvododstat (day 5), geometric mean (%CV)): 0.157 µg·h/mL; AUC(0-inf) ([2]; human, oral, dextromethorphan in plasma, 30 mg dextromethorphan with 250 mg emvododstat (day 5), geometric mean (%CV), n = 16, read-out: AUC0-inf): 0.362 µg·h/mL; Tmax ([2]; human, oral, dextromethorphan in plasma, 30 mg dextromethorphan with 250 mg emvododstat (day 5), read-out: Tmax): 4 h; half-life ([2]; human, plasma, oral, dextromethorphan in plasma, 30 mg dextromethorphan with 250 mg emvododstat (day 5), geometric mean (%CV), n = 16, read-out: T1/2 (converted)): 41 h; half-life ([2]; human, plasma, po, 30 mg, dextromethorphan in plasma, 30 mg oral dextromethorphan alone (day 1), geometric mean (%CV), read-out: T1/2 (converted)): 9 h; Cmax ([2]; human, dextromethorphan in plasma, 30 mg dextromethorphan 2 h after 250 mg oral emvododstat (day 5), geometric mean (%CV)): 5.85 ng/mL; AUC(0-t) ([2]; human, dextromethorphan in plasma, 30 mg oral dextromethorphan alone (day 1), geometric mean (%CV)): 0.0188 µg·h/mL; AUC(0-inf) ([2]; human, dextromethorphan in plasma, 30 mg oral dextromethorphan alone (day 1), geometric mean (%CV), read-out: AUC0-inf): 0.0216 µg·h/mL; Cmax ([2]; human, dextromethorphan in plasma, 30 mg oral dextromethorphan alone (day 1), healthy subjects, geometric mean (%CV)): 2.01 ng/mL; Tmax ([2]; human, dextromethorphan in plasma, 30 mg oral dextromethorphan alone (day 1), read-out: Tmax): 4 h; Drug-related adverse effects [8]: mild and reversible
